ChEMBL document CHEMBL2074004, “P-glycoprotein-dependent disposition kinetics of tacrolimus: studies in mdr1a knockout mice” (Pharm Res, 1999)

Legend:
[1] = target: T1, ATP-dependent translocase ABCB1 (Mus musculus, UniProt P21447); assay: TP_TRANSPORTER: increase in brain concentration in mdr1a(-/-) mouse; format: functional, organism-based; conditions: in vivo
[2] = target: T1, ATP-dependent translocase ABCB1; assay: TP_TRANSPORTER: increase in blood concentration in mdr1a(-/-) mouse; format: functional, organism-based; conditions: in vivo

T1 sequence (P21447 whole entry): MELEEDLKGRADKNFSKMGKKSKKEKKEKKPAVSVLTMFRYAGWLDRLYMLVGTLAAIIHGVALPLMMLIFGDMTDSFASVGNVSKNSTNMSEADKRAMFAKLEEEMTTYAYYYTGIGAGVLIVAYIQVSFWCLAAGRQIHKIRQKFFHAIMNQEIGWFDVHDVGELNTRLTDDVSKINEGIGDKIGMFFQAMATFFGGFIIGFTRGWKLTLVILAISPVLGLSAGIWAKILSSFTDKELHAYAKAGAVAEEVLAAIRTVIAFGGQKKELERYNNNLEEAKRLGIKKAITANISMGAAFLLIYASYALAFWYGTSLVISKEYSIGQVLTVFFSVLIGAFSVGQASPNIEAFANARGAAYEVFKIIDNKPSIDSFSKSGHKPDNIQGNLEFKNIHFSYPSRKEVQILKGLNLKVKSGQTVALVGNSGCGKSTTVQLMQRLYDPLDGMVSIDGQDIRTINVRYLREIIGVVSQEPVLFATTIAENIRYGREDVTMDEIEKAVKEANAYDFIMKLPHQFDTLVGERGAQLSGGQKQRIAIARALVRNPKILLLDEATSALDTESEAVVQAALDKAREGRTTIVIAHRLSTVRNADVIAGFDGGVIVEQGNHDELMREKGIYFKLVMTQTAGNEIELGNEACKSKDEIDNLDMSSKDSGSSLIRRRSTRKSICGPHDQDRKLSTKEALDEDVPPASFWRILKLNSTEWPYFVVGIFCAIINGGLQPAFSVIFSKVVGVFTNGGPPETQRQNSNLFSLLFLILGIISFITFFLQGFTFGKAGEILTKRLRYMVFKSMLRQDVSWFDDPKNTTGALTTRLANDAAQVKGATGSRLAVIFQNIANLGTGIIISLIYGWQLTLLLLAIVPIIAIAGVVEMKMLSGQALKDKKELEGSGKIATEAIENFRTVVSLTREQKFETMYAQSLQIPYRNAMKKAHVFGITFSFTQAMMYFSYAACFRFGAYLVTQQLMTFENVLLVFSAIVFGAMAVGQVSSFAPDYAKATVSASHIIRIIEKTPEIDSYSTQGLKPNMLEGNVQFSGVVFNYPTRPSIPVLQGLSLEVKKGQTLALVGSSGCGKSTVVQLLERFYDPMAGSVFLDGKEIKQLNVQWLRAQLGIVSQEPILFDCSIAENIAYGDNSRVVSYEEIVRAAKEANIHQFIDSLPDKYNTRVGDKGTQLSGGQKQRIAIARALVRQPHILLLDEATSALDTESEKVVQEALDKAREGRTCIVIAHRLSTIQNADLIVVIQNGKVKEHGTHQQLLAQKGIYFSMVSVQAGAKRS

Activity [1]: substrate [+]
Activity [2]: substrate [+]
SMILES: C=CC[C@@H]1/C=C(\C)C[C@H](C)C[C@H](OC)[C@H]2O[C@@](O)(C(=O)C(=O)N3CCCC[C@H]3C(=O)O[C@H](/C(C)=C/[C@@H]3CC[C@@H](O)[C@H](OC)C3)[C@H](C)[C@@H](O)CC1=O)[C@H](C)C[C@@H]2OC [TACROLIMUS ANHYDROUS]
